Results from article PMC10045663, “Synthesis, In Vitro Biological Evaluation of Antiproliferative and Neuroprotective Effects and In Silico Studies of Novel 16E-Arylidene-5α,6α-epoxyepiandrosterone Derivatives” (Biomedicines, 2023).

Columns and labels:
Assay type in all cases: cell-based
MCF-7 cells [1] = experiment: PI incorporation (propidium iodide staining); settings: 48 h
Method: After 48 h of being seeded at the same conditions explained in the previous (Section 2.2.4), MCF-7 cells were treated with the steroidal derivatives 19 and 5-FU at 1 and 10 µM and maintained in culture for 48 h. Untreated cells were also used as a negative control. Subsequently, cells were incubated with 20 µL/per well of a propidium iodide solution (PI; 1 mg/mL in PBS; Sigma-Aldrich Co. LLC) for 25 min at 37 °C. Then, the medium was removed, and the cells were fixed with 10% formalin for 15 min at room temperature. Cells were washed three times with PBS and incubated with 30 µL/per coverslip of Hoechst-33342 (1:500) for 10 min. After incubation, cells were washed three times with PBS. Coverslips were mounted on a drop of the fluoroshield mounting medium on a microscope slide, left to dry for 24 h, and then visualized in a Zeiss Axio Imager A1 microscope with the 40× objective.

MCF-7 cells [2] = experiment: Nuclear area analysis with ImageJ (Hoechst 33342-stained nuclei); settings: MCF-7, 1 and 10 µM, 48 h
Text: (§1) The nuclear measurements were achieved by converting 16-bit photomicrographs of Hoechst 33342-stained nuclei in different studied conditions into 8-bit images. Then, these imagens were autothresholded to binary photos using the default “Make binary” function of ImageJ (v. 1.49) software (NIH Image, Bethesda, MD, USA). Cell nuclei that are touching were separated and fragments were discarded based on area through “Analyze Particle” function. This function also provides several other information, such as nuclear area (NA), circumference, and form factor [26]. Furthermore, the “Nearest Neighbor Distance” (NND) was determined. This function allows measuring the distance between each cell nucleus and the nearest ones, providing information about cell distribution.

[3] = tested on: PC-3 cells (androgen-independent prostatic cancer); experiment: MTT cell proliferation assay, PC-3 cells; settings: 72 h
MCF-7 cells [4] = experiment: Nearest neighbor distance analysis with ImageJ; settings: MCF-7, 1 and 10 µM, 48 h
Text: as §1

[5] = tested on: MCF-7 cells (estrogen-responsive breast cancer cells); experiment: MTT cell proliferation assay, MCF-7 cells; settings: 72 h

(E)-16-(2,3-Dichlorobenzylidene)-3-hydroxy-5α ,6α -epoxy-10,13-dimethyl-1,3,4,7,8,9,10,11,12,13,15,16-dodecahydro-2H-cyclopenta[α ]phenanthren-17(14H)-one [Compound 19]
PI-positive cells relative to the negative control (MCF-7 cells [1]; MCF-7, 1 µM): no significant effect | PI-positive cells relative to the negative control (MCF-7 cells [1]; MCF-7, 10 µM): significantly increase | percentage of PI incorporation compared with the positive control (5-FU) (MCF-7 cells [1]; MCF-7, 10 µM): about three times | nuclear area (NA) relative to the control (MCF-7 cells [2]): decreased significantly | IC50 ([3]; MTT, tumoral cells, read-out: Estimated IC50, PC-3): 19 µM | decrease on cell proliferation relative to the control ([3]; PC-3, 50 µM): higher than 75% | cell distribution (nearest neighbor distance, NND) (MCF-7 cells [4]): more random distribution with nuclei more spaced | decrease in cell proliferation ([5]; MCF-7, 10 µM): around 75% | cell proliferation relative to the control ([5]; MCF-7, 50 µM): ~0% | decrease in cell proliferation ([5]; MCF-7, 50 µM): ~100% | IC50 ([5]; MTT, tumoral cells, read-out: Estimated IC50, MCF-7): 3.47 µM
